molecular target: T1, human FXR (NR1H4) (Homo sapiens, UniProt Q96RI1); assay: Human FXR (NRIH4) Assay, luciferase reporter; assay type: cell-based; details: CHO reporter cells expressing human NR1H4, luciferase, 22 hours incubation
T1 construct: host or cells: CHO (Chinese hamster ovary) reporter cells
T1 sequence (Q96RI1 1-486): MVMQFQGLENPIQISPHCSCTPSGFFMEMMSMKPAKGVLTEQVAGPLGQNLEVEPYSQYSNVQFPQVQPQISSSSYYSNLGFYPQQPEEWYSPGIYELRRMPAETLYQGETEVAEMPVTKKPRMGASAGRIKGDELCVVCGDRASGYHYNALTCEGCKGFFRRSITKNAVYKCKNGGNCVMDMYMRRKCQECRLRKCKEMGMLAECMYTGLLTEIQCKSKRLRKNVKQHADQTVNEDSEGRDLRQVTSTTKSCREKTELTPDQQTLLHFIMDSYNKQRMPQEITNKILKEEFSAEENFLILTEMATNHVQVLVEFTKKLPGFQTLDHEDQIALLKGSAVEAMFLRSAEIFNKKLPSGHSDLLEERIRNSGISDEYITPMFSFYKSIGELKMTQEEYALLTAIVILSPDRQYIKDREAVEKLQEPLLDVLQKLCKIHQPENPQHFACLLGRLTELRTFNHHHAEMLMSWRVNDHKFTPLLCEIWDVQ
Text: Determination of a ligand mediated Gal4 promoter driven transactivation to quantify ligand binding mediated activation of FXR. FXR Reporter Assay kit purchased from Indigo Bioscience (Catalogue number: IB00601) to determine the potency and efficacy of compound developed by Enanta that can induce FXR activation. The principle application of this reporter assay system is to quantify functional activity of human FXR. The assay utilizes non-human mammalian cells, CHO (Chinese hamster ovary) cells engineered to express human NR1H4 protein (referred to as FXR). Reporter cells also incorporate the cDNA encoding beetle luciferase which catalyzes the substrates and yields photon emission. Luminescence intensity of the reaction is quantified using a plate-reading luminometer, Envision. Reporter Cells include the luciferase reporter gene functionally linked to an FXR responsive promoter. Thus, quantifying changes in luciferase expression in the treated reporter cells provides a sensitive surrogate measure of the changes in FXR activity. EC50 and efficacy (normalize to CDCA set as 100%) is determined by XLFit. The assay is according to the manufacturer's instructions. In brief, the assay was performed in white, 96 well plates using final volume of 100 ul containing cells with different doses of compounds. Retrieve Reporter Cells from −80° C. storage. Perform a rapid thaw of the frozen cells by transferring a 10 ml volume of 37° C. cell recovery medium into the tube of frozen cells. Recap the tube of Reporter Cells and immediately place it in a 37° C. water bath for 5-10 minutes. Retrieve the tube of Reporter Cell Suspension from the water bath. Sanitize the outside surface of the tube with a 70% alcohol swab, and then transfer it into the cell culture hood. Dispense 90 μl of cell suspension into each well of the 96-well Assay Plate. Transfer the plate into 37° C. incubator, allowing the cells adherent to the bottom of the well. Dilute compounds in Dilution Plate (DP), and administrate to cells at Assay Plate (AP). DMSO content of the samples was kept at 0.2%. Cells were incubated for additional 22 hours before luciferase activities were measured. Thirty minutes before intending to quantify FXR activity, remove Detection Substrate and Detection Buffer from the refrigerator and place them in a low-light area so that they may equilibrate to room temperature. Remove the plate's lid and discard all media contents by ejecting it into an appropriate waste container. Gently tap the inverted plate onto a clean absorbent paper towel to remove residual droplets. Cells will remain tightly adhered to well bottoms. Add 100 μl of luciferase detection reagent to each well of the assay plate. Allow the assay plate to rest at room temperature for at least 5 minutes following the addition of LDR. Set the instrument (Envision) to perform a single 5 second “plate shake” prior to reading the first assay well. Read time may be 0.5 second (500 mSec) per well. EC50 and Efficacy (normalize to CDCA set as 100%) is determined by XLFit.
The efficacy was normalized to CDCA set as 100%.

Row | Compound | EC50
1 | O=S(=O)(NC1C2CCC1CC(OCc1c(-c3ccccc3OC(F)(F)F)noc1C1CC1)C2)c1cccc2ccccc12 (stereo not drawn) [Example 9-11] | < 25 nM
2 | O=S(=O)(NC1C2CCC1CC(OCc1c(-c3ccccc3OC(F)(F)F)noc1C1CC1)C2)c1ccc2ccccc2c1 (stereo not drawn) [Example 9-12] | < 25 nM
3 | O=S(=O)(NC1C2CCC1CC(OCc1c(-c3ccccc3OC(F)(F)F)noc1C1CC1)C2)c1cccc2cccnc12 (stereo not drawn) [Example 9-13] | 25 to 500 nM
4 | O=S(=O)(NC1C2CCC1CC(OCc1c(-c3ccccc3OC(F)(F)F)noc1C1CC1)C2)c1cccc2cnccc12 (stereo not drawn) [Example 9-14] | < 25 nM
5 | O=S(=O)(NC1C2CCC1CC(OCc1c(-c3ccccc3OC(F)(F)F)noc1C1CC1)C2)c1cccc2ccncc12 (stereo not drawn) [Example 9-15] | < 25 nM
6 | O=S(=O)(NC1C2CCC1CC(OCc1c(-c3ccccc3OC(F)(F)F)noc1C1CC1)C2)c1cccc2ncccc12 (stereo not drawn) [Example 9-16] | < 25 nM
7 | CC(C)Oc1ccc(S(=O)(=O)NC2C3CCC2CC(OCc2c(-c4ccccc4OC(F)(F)F)noc2C2CC2)C3)c2ccccc12 (stereo not drawn) [Example 9-17] | 25 to 500 nM
8 | CC(C)Oc1cc(CO)cc2sc(NC3C4CCC3CC(OCc3c(-c5ccccc5OC(F)(F)F)noc3C3CC3)C4)nc12 (stereo not drawn) [Example 10-2] | < 25 nM
9 | CC(C)Oc1cc(C(C)(C)O)cc2sc(NC3C4CCC3CC(OCc3c(-c5ccccc5OC(F)(F)F)noc3C3CC3)C4)nc12 (stereo not drawn) [Example 10] | < 25 nM
10 | COC(=O)c1ccc2cc(SC3C4CCC3CC(OCc3c(-c5ccccc5OC(F)(F)F)noc3C3CC3)C4)ccc2c1 [Example 11, methyl 6-(((1R,3r,5S,8s)-3-((5-cyclopropyl-3-(2-(trifluoromethoxy)phenyl)isoxazol-4-yl)methoxy)bicyclo[3.2.1]octan-8-yl)thio)-2-naphthoate] | 25 to 500 nM
11 | O=C(O)c1cccc2nc(SC3C4CCC3CC(OCc3c(-c5ccccc5OC(F)(F)F)noc3C3CC3)C4)cnc12 [Example 12, 2-(((1R,3r,5S,8s)-3-((5-cyclopropyl-3-(2-(trifluoromethoxy)phenyl)isoxazol-4-yl)methoxy)bicyclo[3.2.1]octan-8-yl)thio)quinoxaline-5-carboxylic acid] | < 25 nM
12 | CCOC(=O)c1cc(F)c2nc(SC3C4CCC3CC(NCc3c(-c5ccccc5OC(F)(F)F)noc3C3CC3)C4)sc2c1 [Example 14, ethyl 2-(((1R,3r,5S,8s)-3-(((5-cyclopropyl-3-(2-(trifluoromethoxy)phenyl)isoxazol-4-yl)methyl)amino)bicyclo[3.2.1]octan-8-yl)thio)-4-fluorobenzo[d]thiazole-6-carboxylate] | > 500 nM

Continued, values first:

Row | EC50 | Compound
13 | 25 to 500 nM | O=C(O)c1ccc2cc(SC3C4CCC3CC(OCc3c(-c5ccccc5OC(F)(F)F)noc3C3CC3)C4)ccc2c1 [Example 11-2, 6-(((1R,3r,5S,8s)-3-((5-cyclopropyl-3-(2-(trifluoromethoxy)phenyl)isoxazol-4-yl)methoxy)bicyclo[3.2.1]octan-8-yl)thio)-2-naphthoic acid]
14 | 25 to 500 nM | COC(=O)c1ccc2cc(S(=O)(=O)C3C4CCC3CC(OCc3c(-c5ccccc5OC(F)(F)F)noc3C3CC3)C4)ccc2c1 [Example 11-3, methyl 6-(((1R,3r,5S,8s)-3-((5-cyclopropyl-3-(2-(trifluoromethoxy)phenyl)isoxazol-4-yl)methoxy)bicyclo[3.2.1]octan-8-yl)sulfonyl)-2-naphthoate]
15 | 25 to 500 nM | O=C(O)c1ccc2cc(S(=O)(=O)C3C4CCC3CC(OCc3c(-c5ccccc5OC(F)(F)F)noc3C3CC3)C4)ccc2c1 (stereo not drawn) [Example 11-4]
16 | > 500 nM | CCOC(=O)c1cccc(SC2C3CCC2CC(OCc2c(-c4ccccc4OC(F)(F)F)noc2C2CC2)C3)c1 (stereo not drawn) [Example 11-5]
17 | 25 to 500 nM | O=C(O)c1cccc(SC2C3CCC2CC(OCc2c(-c4ccccc4OC(F)(F)F)noc2C2CC2)C3)c1 (stereo not drawn) [Example 11-6]
18 | 25 to 500 nM | CCOC(=O)c1cccc(S(=O)(=O)C2C3CCC2CC(OCc2c(-c4ccccc4OC(F)(F)F)noc2C2CC2)C3)c1 (stereo not drawn) [Example 11-7]
19 | > 500 nM | O=C(O)c1cccc(S(=O)(=O)C2C3CCC2CC(OCc2c(-c4ccccc4OC(F)(F)F)noc2C2CC2)C3)c1 (stereo not drawn) [Example 11-8]
20 | 25 to 500 nM | COC(=O)c1ccc2nc(SC3C4CCC3CC(OCc3c(-c5ccccc5OC(F)(F)F)noc3C3CC3)C4)sc2c1 (stereo not drawn) [Example 11-9]
21 | < 25 nM | O=C(O)c1ccc2nc(SC3C4CCC3CC(OCc3c(-c5ccccc5OC(F)(F)F)noc3C3CC3)C4)sc2c1 (stereo not drawn) [Example 11-10]
22 | 25 to 500 nM | O=C(O)c1ccc2nc(S(=O)(=O)C3C4CCC3CC(OCc3c(-c5ccccc5OC(F)(F)F)noc3C3CC3)C4)sc2c1 (stereo not drawn) [Example 11-11]
23 | 25 to 500 nM | COC(=O)c1ccc(SC2C3CCC2CC(OCc2c(-c4ccccc4OC(F)(F)F)noc2C2CC2)C3)cc1 (stereo not drawn) [Example 11-12]
24 | 25 to 500 nM | O=C(O)c1ccc(SC2C3CCC2CC(OCc2c(-c4ccccc4OC(F)(F)F)noc2C2CC2)C3)cc1 (stereo not drawn) [Example 11-13]
25 | 25 to 500 nM | COC(=O)c1ccc(S(=O)(=O)C2C3CCC2CC(OCc2c(-c4ccccc4OC(F)(F)F)noc2C2CC2)C3)cc1 (stereo not drawn) [Example 11-14]
26 | 25 to 500 nM | O=C(O)c1ccc(S(=O)(=O)C2C3CCC2CC(OCc2c(-c4ccccc4OC(F)(F)F)noc2C2CC2)C3)cc1 (stereo not drawn) [Example 11-15]
27 | 25 to 500 nM | CCOC(=O)c1cc(F)c2nc(SC3C4CCC3CC(OCc3c(-c5ccccc5OC(F)(F)F)noc3C3CC3)C4)sc2c1 (stereo not drawn) [Example 11-16]
28 | < 25 nM | O=C(O)c1cc(F)c2nc(SC3C4CCC3CC(OCc3c(-c5ccccc5OC(F)(F)F)noc3C3CC3)C4)sc2c1 (stereo not drawn) [Example 11-17]
29 | > 500 nM | CCOC(=O)c1cc(F)c2nc(S(=O)(=O)C3C4CCC3CC(OCc3c(-c5ccccc5OC(F)(F)F)noc3C3CC3)C4)sc2c1 (stereo not drawn) [Example 11-18]
30 | > 500 nM | N#Cc1cccc2ncc(NC3C4CCC3CC(OCc3c(-c5ccccc5OC(F)(F)F)noc3C3CC3)C4)nc12 (stereo not drawn) [Example 13-2]
31 | < 25 nM | FC(F)(F)Oc1ccccc1-c1noc(C2CC2)c1CO[C@H]1C[C@H]2CC[C@@H](C1)[C@@H]2Nc1cnc2c(-c3nnn[nH]3)cccc2n1 [Example 13-3, N-((1R,3r,5S,8s)-3-((5-cyclopropyl-3-(2-(trifluoromethoxy)phenyl)isoxazol-4-yl)methoxy)bicyclo[3.2.1]octan-8-yl)-5-(1H-tetrazol-5-yl)quinoxalin-2-amine]
32 | < 25 nM | FC(F)(F)Oc1ccccc1-c1noc(C2CC2)c1COC1CC2CCC(C1)C2Nc1nc2c(C3CC3)cc(-c3nnn[nH]3)cc2s1 (stereo not drawn) [Example 13-5]
33 | < 25 nM | CC(C)Oc1cc(C#N)cc2sc(NC3C4CCC3CC(OCc3c(-c5ccccc5OC(F)(F)F)noc3C3CC3)C4)nc12 (stereo not drawn) [Example 13-6]
34 | < 25 nM | CC(C)Oc1cc(-c2nnn[nH]2)cc2sc(NC3C4CCC3CC(OCc3c(-c5ccccc5OC(F)(F)F)noc3C3CC3)C4)nc12 (stereo not drawn) [Example 13-7]
35 | 25 to 500 nM | O=C(O)c1cc(F)c2nc(S[C@@H]3[C@@H]4CC[C@H]3C[C@@H](NCc3c(-c5ccccc5OC(F)(F)F)noc3C3CC3)C4)sc2c1 [Example 14-2, 2-(((1R,3r,5S,8s)-3-(((5-cyclopropyl-3-(2-(trifluoromethoxy)phenyl)isoxazol-4-yl)methyl)amino)bicyclo[3.2.1]octan-8-yl)thio)-4-fluorobenzo[d]thiazole-6-carboxylic acid]
36 | 25 to 500 nM | COC(=O)c1ccc2nc(SC3C4CCC3CC(NCc3c(-c5ccccc5OC(F)(F)F)noc3C3CC3)C4)[nH]c2c1 (stereo not drawn) [Example 14-3]

Source: US11555032B2, “Isoxazole derivatives as FXR agonists and methods of use thereof” (Enanta Pharmaceuticals, Inc., priority 2019, dated 2023)
